Results taken from patent US20250339399A1, “SUPRAMOLECULAR SELF-ASSEMBLY SYSTEM” (Beijing Creatron Institute of Pharmaceutical Research Co., …, priority 2022, published 2025).
Read-outs that look alike come from different tables or passages of the source.

Tests used:
[1] = cited from earlier work; for Log P: prost derivatives, Table 31 (relevant information)
[2] = prost derivatives; 37° C.; cited from earlier work
[3] = Guest molecule concentration after incubation in initial medium without polymer (Comparative Example 1); format: physicochemical; details: 37° C.
How it was run: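 Dissolved guest content measured by HPLC of centrifuged supernatants (37° C., 13000 rpm, 5 min) sampled at 0.5 h, 3 h and 6 h. Incubation was polymer-free at 37° C.±0.5° C. in buffers of pH 2.0-7.4; nominal loading was set by maximum clinical dose.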

[4] = Binary supramolecular self-assembly systems of polymer and target: guest concentration over incubation time (Comparative Example 2); format: physicochemical
Procedure: Experiments were conducted according to the steps in Comparative Example 1, and quantitative analysis was carried out using the analytical method for each target to investigate the regulation ability […] stacking.

[5] = Binary (carrier), ternary and quaternary supramolecular self-assembly systems of polymer, carrier building block and target: guest concentration over incubation time (Examples 1-56); format: physicochemical
How it was run: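 Targets were incubated at 37 °C in pH 2.0–7.4 buffers with 0.5% polymer alone or with carrier building blocks, after 0.5 h sonication for ternary systems, and shaken at 200 rpm. Samples at 0.5–6 h were centrifuged and diluted ≥10-fold, and dissolved target was quantified by HPLC; surfactant was added if needed.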

[6] = cited from earlier work
[7] = Comparative Example 3: systems with 10% (W/V) natural building block; format: physicochemical; details: Comparative Example 3: 10% 319; 6 h
Procedure: An initial medium of each above target molecule was used to prepare a solution containing 10% Rubusoside A (313) or 10% (W/V) Mogroside V (319), the solution was sonicated at 37° C. to prepare a solution containing about 100 mg/mL building block 313 or 319 per 1 mL of the initial medium, the clear medium containing the natural building blocks was incubated in a 37° C. constant temperature air bath shaker for 1 hour, and subsequent operations and sample detection followed the steps of Comparative Examples 1 and 2. Considering that each natural building block had different UV absorption and was added at a high concentration, the more specific HPLC method was still used for quantitative determination on the solution concentration of each guest molecule, […].

[8] = binary system with 0.5% polymer 101, incubation 0.5 h
[9] = binary system with 0.5% polymer 101, incubation 3 h
[10] = binary system with 0.5% polymer 101, incubation 6 h
[11] = binary system with 0.5% polymer 102, incubation 0.5 h
[12] = binary system with 0.5% polymer 102, incubation 3 h
[13] = binary system with 0.5% polymer 102, incubation 6 h
[14] = binary system with 0.5% polymer 103, incubation 0.5 h
[15] = binary system with 0.5% polymer 103, incubation 3 h
[16] = binary system with 0.5% polymer 103, incubation 6 h
[17] = binary system with 0.5% polymer 106, incubation 0.5 h
[18] = binary system with 0.5% polymer 106, incubation 3 h
[19] = binary system with 0.5% polymer 106, incubation 6 h
[20] = binary system with 0.5% polymer 107, incubation 0.5 h
[21] = binary system with 0.5% polymer 107, incubation 3 h
[22] = binary system with 0.5% polymer 107, incubation 6 h
[23] = binary system with 0.5% polymer 110, incubation 0.5 h
[24] = binary system with 0.5% polymer 110, incubation 3 h
[25] = binary system with 0.5% polymer 110, incubation 6 h
[26] = quaternary: 0.05% 314 + 0.25% 201, 6 h
[27] = quaternary: 0.05% 314 + 0.25% 202, 6 h
[28] = quaternary: 0.05% 314 + 0.25% 203, 6 h
[29] = quaternary: 0.05% 314 + 0.25% 204, 6 h
[30] = quaternary: 0.05% 314 + 0.25% 205, 6 h
[31] = ternary: 0.25% 102H + 0.1% 319, 6 h
[32] = ternary: 0.25% 102H + 1.0% 319, 6 h
[33] = ternary: 0.25% 102M + 0.5% 302, 6 h

## CCNC(=O)CCC/C=C\C[C@@H]1[C@@H](/C=C/[C@@H](O)CCc2ccccc2)[C@H](O)C[C@@H]1O [Bimatoprost, bimatoprost]
[1]
  Log P: 2.65
[2]
  Intrinsic solubility: 50 µg/mL

## C=C(C)[C@@H]1CCC(C)=C[C@H]1c1c(O)cc(CCCCC)cc1O [Cannabidiol]
[3]; 0.5 h, 0.05% SDS in pH 6.8 phosphate buffer
  Concentration of guest molecule measured after different incubated time: 11.4 µg/mL
[3]; 3 h, 0.05% SDS in pH 6.8 phosphate buffer
  Concentration of guest molecule measured after different incubated time: 11.8 µg/mL
[3]; 6 h, 0.05% SDS in pH 6.8 phosphate buffer
  Concentration of guest molecule measured after different incubated time: 8.5 µg/mL
[4]; [8]
  Concentration of the target in the solution measured after different incubation time: 282.6 µg/mL
[4]; [9]
  Concentration of the target in the solution measured after different incubation time: 293.7 µg/mL
[4]; [10]
  Concentration of the target in the solution measured after different incubation time: 342.5 µg/mL
[4]; [11]
  Concentration of the target in the solution measured after different incubation time: 307.3 µg/mL
[4]; [12]
  Concentration of the target in the solution measured after different incubation time: 323.6 µg/mL
[4]; [13]
  Concentration of the target in the solution measured after different incubation time: 333.1 µg/mL
[4]; [14]
  Concentration of the target in the solution measured after different incubation time: 54.8 µg/mL
[4]; [15]
  Concentration of the target in the solution measured after different incubation time: 55.1 µg/mL
[4]; [16]
  Concentration of the target in the solution measured after different incubation time: 55.7 µg/mL
[4]; [17]
  Concentration of the target in the solution measured after different incubation time: 148.1 µg/mL
[4]; [18]
  Concentration of the target in the solution measured after different incubation time: 149.4 µg/mL
[4]; [19]
  Concentration of the target in the solution measured after different incubation time: 155.7 µg/mL
[4]; [20]
  Concentration of the target in the solution measured after different incubation time: 109.6 µg/mL
[4]; [21]
  Concentration of the target in the solution measured after different incubation time: 97.2 µg/mL
[4]; [22]
  Concentration of the target in the solution measured after different incubation time: 95.7 µg/mL
[4]; [23]
  Concentration of the target in the solution measured after different incubation time: 168.9 µg/mL
[4]; [24]
  Concentration of the target in the solution measured after different incubation time: 8.6 µg/mL
[4]; [25]
  Concentration of the target in the solution measured after different incubation time: 7.3 µg/mL
[4]; binary: 0.25% 101, 6 h
  Concentration of guest molecule in solution: 342.5 µg/mL
  Times that of the initial medium: 40 times
[4]; binary: 0.25% 103E3, 6 h
  Concentration of guest molecule in solution: 55.7 µg/mL
[4]; binary: 0.25% 106 (K30), 6 h
  Concentration of guest molecule in solution: 155.7 µg/mL
  Times that of the initial medium: 18 times
[5]; [26]
  Concentration of guest molecule in solution: 732.2 µg/mL
  Times that of the initial medium: 86 times
[5]; [27]
  Concentration of guest molecule in solution: 399.4 µg/mL
  Times that of the initial medium: 47 times
[5]; [28]
  Concentration of guest molecule in solution: 648.3 µg/mL
  Times that of the initial medium: 76 times
[5]; [29]
  Concentration of guest molecule in solution: 725.0 µg/mL
  Times that of the initial medium: 85 times
[5]; [30]
  Concentration of guest molecule in solution: 581.7 µg/mL
  Times that of the initial medium: 68 times
[5]; ternary: 102M + 0.1% 310, 6 h
  Concentration of guest molecule in solution: 580.1 µg/mL
[5]; ternary: 102M + 0.25% 310, 6 h
  Concentration of guest molecule in solution: 481.2 µg/mL
[6]; 200 mM methyl-beta-cyclodextrin, literature
  Concentration in the system: 25500 µg/mL
[6]; International Journal of Pharmaceutics 589 (2020) 119812
  Best result reported by the literature (concentration): 150 µg/mL
[6]; about 5-10 mM methyl-beta-cyclodextrin, literature curve
  Concentration in the system: lower than 1 mg/mL
[1]
  LogD7.4 or Log P: 6.32

## COc1cc(/C=C/C(=O)CC(=O)/C=C/c2ccc(O)c(OC)c2)ccc1O [Curcumin]
[3]; 0.5 h, pH 6.8 phosphate buffer
  Concentration of guest molecule measured after different incubated time: 1.7 µg/mL
[3]; 3 h, pH 6.8 phosphate buffer
  Concentration of guest molecule measured after different incubated time: 9.4 µg/mL
[3]; 6 h, pH 6.8 phosphate buffer
  Concentration of guest molecule measured after different incubated time: 8.6 µg/mL
[4]; [8]
  Concentration of the target in the solution measured after different incubation time: 219.7 µg/mL
[4]; [9]
  Concentration of the target in the solution measured after different incubation time: 120.1 µg/mL
[4]; [10]
  Concentration of the target in the solution measured after different incubation time: 50.3 µg/mL
[4]; [11]
  Concentration of the target in the solution measured after different incubation time: 747.8 µg/mL
[4]; [12]
  Concentration of the target in the solution measured after different incubation time: 643.4 µg/mL
[4]; [13]
  Concentration of the target in the solution measured after different incubation time: 576.7 µg/mL
[4]; [14]
  Concentration of the target in the solution measured after different incubation time: 76.1 µg/mL
[4]; [15]
  Concentration of the target in the solution measured after different incubation time: 52.9 µg/mL
[4]; [16]
  Concentration of the target in the solution measured after different incubation time: 32.7 µg/mL
[4]; [17]
  Concentration of the target in the solution measured after different incubation time: 102.6 µg/mL
[4]; [18]
  Concentration of the target in the solution measured after different incubation time: 118.1 µg/mL
[4]; [19]
  Concentration of the target in the solution measured after different incubation time: 90.3 µg/mL
[4]; [20]
  Concentration of the target in the solution measured after different incubation time: 107.4 µg/mL
[4]; [21]
  Concentration of the target in the solution measured after different incubation time: 8.3 µg/mL
[4]; [22]
  Concentration of the target in the solution measured after different incubation time: 7.7 µg/mL
[4]; [23]
  Concentration of the target in the solution measured after different incubation time: 6.0 µg/mL
[4]; [24]
  Concentration of the target in the solution measured after different incubation time: 8.3 µg/mL
[4]; [25]
  Concentration of the target in the solution measured after different incubation time: 10.0 µg/mL
[4]; binary: 0.25% 102M, 2 h
  Concentration of guest molecule in solution: 962.6 µg/mL
[4]; binary: 0.25% 102M, 6 h
  Concentration of guest molecule in solution: 6.4 µg/mL
[4]; binary: 0.5% 102M, 6 h
  Concentration of guest molecule in solution: 576.6 µg/mL
  Times that of the initial medium: 67 times
[5]; quaternary: 0.25% 204 (102M+103E5) + 302, 6 h
  Concentration of guest molecule in solution: 34.2 µg/mL
[5]; [31]
  Concentration of guest molecule in solution: 676.6 µg/mL
  Times that in Comparative Example 3: 81.5 times
[5]; [32]
  Concentration of guest molecule in solution: 516.3 µg/mL
  Times that in Comparative Example 3: 62.2 times
[5]; ternary: 0.25% 102M + 0.05% 314, 0.5 h
  Concentration of guest molecule in solution: 140.0 µg/mL
[5]; ternary: 0.25% 102M + 0.05% 314, 6 h
  Concentration of guest molecule in solution: 5.2 µg/mL
[5]; ternary: 0.25% 102M + 0.1% 314, 4 h
  Concentration of guest molecule in solution: 1036.7 µg/mL
[5]; [33]
  Concentration of guest molecule in solution: 862.1 µg/mL
  Times that of the initial medium: 100.6 times
[5]; ternary: 0.25% 102M + 1.0% or 1.5% 314, 0.5 h-4.0 h
  Concentration of guest molecule in solution: ~1000 µg/mL
[5]; ternary: 0.25% 102M + 1.0% or 1.5% 314, 6 h
  Concentration of guest molecule in solution: 900 µg/mL
[5]; ternary: 102H + 313, 4 h
  Concentration of guest molecule in solution: about 609.8 μg/mL
[5]; ternary: 102H + 317, 4 h
  Concentration of guest molecule in solution: ~638.6 µg/mL
[7]
  Concentration of guest molecule in solution: 8.3 µg/mL
[1]
  LogP: 4.12

## CC(C)OC(=O)CCC/C=C\C[C@@H]1[C@@H](CC[C@@H](O)CCc2ccccc2)[C@H](O)C[C@@H]1O [Latanoprost, latanoprost]
[1]
  Log P: 3.98
[2]
  Intrinsic solubility: 30 µg/mL
